Data as given in US12018059B2, “Human amylin analog polypeptides and methods of use” (Intarcia Therapeutics, Inc., priority 2018, dated 2024).
Starred links: 1 amine or outer side, 2 acyl side, 3 side chain; linkers in the order of their positions; H or OH if unused. Positions of bridges follow the written chain, without caps; N, C: chain ends. Non-standard residues stand in square brackets, D forms with d. Residues, ends and D or L forms follow the SMILES beside them. Groups on a side chain read outwards from the residue. *: point of attachment. Docosanoyl = CCCCCCCCCCCCCCCCCCCCCC(=O)*; γGlu = O=C(O)[C@H](CCC(=O)[*:2])N[*:1]; Palmitoyl = CCCCCCCCCCCCCCCC(=O)*

Key:
in vivo = assay: in vivo; set-up: species or system Sprague-Dawley rats; conditions: rat, iv, 0.033 mg/kg
In short: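 Peptide plasma levels measured by UPLC-MS/MS (C18, product-ion monitoring) after protein precipitation or WCX SPE, calibrated in K2EDTA/protease-inhibitor rat plasma. Dosing in non-fasted male Sprague-Dawley rats (n=3): 0.033 mg/kg over 1 h by IV or SC infusion, or 0.3 mg/kg SC bolus; sampling up to 48 h.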

[1] = biological target: T1, human calcitonin receptor (hCTR) (Homo sapiens, UniProt P30988); assay: cAMP accumulation functional assay in HEK293-CNG cells expressing hCTR; type: cell-based; conditions: presence versus absence of HSA (FIG. 2D)
T1 sequence (P30988 25-474): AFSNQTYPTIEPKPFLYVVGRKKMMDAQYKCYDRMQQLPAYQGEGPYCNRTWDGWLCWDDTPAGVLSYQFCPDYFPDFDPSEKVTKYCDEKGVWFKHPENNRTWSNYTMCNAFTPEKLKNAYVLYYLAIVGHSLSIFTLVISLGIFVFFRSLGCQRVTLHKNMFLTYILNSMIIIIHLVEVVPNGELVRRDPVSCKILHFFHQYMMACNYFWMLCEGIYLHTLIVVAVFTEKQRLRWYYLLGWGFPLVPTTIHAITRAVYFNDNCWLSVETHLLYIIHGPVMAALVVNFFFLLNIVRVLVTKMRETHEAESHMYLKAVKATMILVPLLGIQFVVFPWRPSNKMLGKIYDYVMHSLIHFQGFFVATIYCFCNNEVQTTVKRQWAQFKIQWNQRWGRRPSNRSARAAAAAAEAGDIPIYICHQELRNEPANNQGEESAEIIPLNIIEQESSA
Description: In the presence of the non-specific cAMP/cGMP phosphodiesterase inhibitor 3-isobutyl-1-methylxanthine (IBMX), accumulating cAMP can be measured in vitro using common detection methods. Thus, it is possible to estimate an in vitro potency (pEC50) for peptides activating each of these receptors using fit dose-response curves for cAMP accumulation.
Cells were carried in growth media for no more than 10 passages prior to testing.
Peptides were serially diluted in the same buffer as above for each given assay condition. Two assay control solutions consisting of 50 mcM forskolin (cAMP system maximum) or assay buffer only (cAMP system minimum) were also prepared in the appropriate stimulation buffers. Five microliters of each peptide-concentration, or assay control was added to triplicate wells and incubated for thirty minutes at room temperature. During this incubation step a 4× europium labelled cAMP tracer solution and a 4× Ulight®-anti-cAMP solution (consisting of an anti-cAMP monoclonal antibody labelled with Ulight™ dye) was prepared according to the manufacturer's protocol (PerkinElmer LANCE Ultra cAMP kit). Following this incubation, 5 mcL europium labelled cAMP and 5 mcL Ulight anti-cAMP antibody was added to wells. The plate was covered with an adhesive cover to prevent evaporation and incubated for 60 minutes at room temperature in the dark. Plates were read on an Envision fluorescent plate reader (PerkinElmer).
Test values were first normalized to the forskolin induced cAMP system maximum and system minimum averaged values in Excel using the formula: (test value−system minavg)/(system maxavg−system minavg)*100. Normalized test values represent a baseline corrected percentage of the system maximum cAMP response induced by forskolin. Normalized data was analyzed from triplicate tests and used to estimate the EC50 for each peptide on each receptor. Data was fit in GraphPad Prism software (v7.04) using a 4-parameter logistic curve model: Y=Bottom+(Top−Bottom)/(1+10^((Log EC50−X))). The Hill slope was constrained to 1.0. EC50 values were converted to pEC50 values using the formula: pEC50=−Log (EC50).

SMILES	Vd (in vivo)	clearance (in vivo)	half-life (in vivo)	effect of HSA on potency at hCTR [1]
CCCCCCCCCCCCCCCC(=O)N[C@@H](CCC(=O)N[C@@H](CCC(=O)NCCCC[C@H](NC(=O)[C@H](CCC(=O)O)NC(=O)[C@H](CC(N)=O)NC(=O)[C@H](C)NC(=O)[C@H](CC(C)C)NC(=O)[C@H](CCCNC(=N)N)NC(=O)[C@H](CCC(N)=O)NC(=O)[C@@H](NC(=O)[C@H](C)NC(=O)[C@@H]1CSSC[C@H](NC(=O)[C@@H](N)CO)C(=O)N[C@@H](CC(N)=O)C(=O)N[C@@H]([C@@H](C)O)C(=O)N[C@@H](CO)C(=O)N[C@@H]([C@@H](C)O)C(=O)N1)[C@@H](C)O)C(=O)N[C@@H](Cc1c[nH]cn1)C(=O)N[C@@H](CCCCN)C(=O)N[C@@H](CO)C(=O)N[C@@H](CO)C(=O)N[C@@H](CC(N)=O)C(=O)N[C@@H](CC(N)=O)C(=O)N[C@@H](Cc1ccccc1)C(=O)NCC(=O)N1CCC[C@H]1C(=O)N[C@H](C(=O)N[C@@H](CC(C)C)C(=O)N1CCC[C@H]1C(=O)N1CCC[C@H]1C(=O)N[C@H](C(=O)N[C@@H](CCCCN)C(=O)N[C@H](C(=O)NCC(=O)N[C@@H](CO)C(=O)N[C@@H](CCC(=O)O)C(=O)N[C@H](C(=O)N[C@@H](Cc1ccc(O)cc1)C(N)=O)[C@@H](C)O)C(C)C)[C@@H](C)O)[C@@H](C)CC)C(=O)O)C(=O)O [Compound A123] (H-SCNTSTCATQRLANEK([γGlu-γGlu-Palmitoyl])HKSSNNFGPILPPTKVGSETY-NH2; disulfide 2-7)	0.146 L/kg	0.58 mL/min/kg	3.2 h	–
CCCCCCCCCCCCCCCCCCCCCC(=O)N[C@@H](CCC(=O)N[C@@H](CCC(=O)NCCCC[C@@H](NC(=O)[C@H](CCC(=O)O)NC(=O)[C@H](CC(N)=O)NC(=O)[C@H](C)NC(=O)[C@H](CC(C)C)NC(=O)[C@H](CCCNC(=N)N)NC(=O)[C@H](CCC(N)=O)NC(=O)[C@@H](NC(=O)[C@H](C)NC(=O)[C@@H]1CSSC[C@H](NC(=O)[C@@H](N)CO)C(=O)N[C@@H](CC(N)=O)C(=O)N[C@@H]([C@@H](C)O)C(=O)N[C@@H](CO)C(=O)N[C@@H]([C@@H](C)O)C(=O)N1)[C@@H](C)O)C(=O)N[C@@H](Cc1c[nH]cn1)C(=O)N[C@@H](CCCCN)C(=O)N[C@@H](CO)C(=O)N[C@@H](CO)C(=O)N[C@@H](CC(N)=O)C(=O)N[C@@H](CC(N)=O)C(=O)N[C@@H](Cc1ccccc1)C(=O)NCC(=O)N1CCC[C@H]1C(=O)N[C@H](C(=O)N[C@@H](CC(C)C)C(=O)N1CCC[C@H]1C(=O)N1CCC[C@H]1C(=O)N[C@H](C(=O)N[C@@H](CCCCN)C(=O)N[C@H](C(=O)NCC(=O)N[C@@H](CO)C(=O)N[C@@H](CCC(=O)O)C(=O)N[C@H](C(=O)N[C@@H](Cc1ccc(O)cc1)C(N)=O)[C@@H](C)O)C(C)C)[C@@H](C)O)[C@@H](C)CC)C(=O)O)C(=O)O [Compound A124] (H-SCNTSTCATQRLANE[dK]([γGlu-γGlu-Docosanoyl])HKSSNNFGPILPPTKVGSETY-NH2; disulfide 2-7)	0.273 L/kg	1.72 mL/min/kg	2.14 h	–
CCCCCCCCCCCCCCCC(=O)N[C@@H](CCC(=O)NCCCC[C@H](NC(=O)[C@H](CCC(=O)O)NC(=O)[C@H](CC(N)=O)NC(=O)[C@H](C)NC(=O)[C@H](CC(C)C)NC(=O)[C@H](CCCNC(=N)N)NC(=O)[C@H](CCC(N)=O)NC(=O)[C@@H](NC(=O)[C@H](C)NC(=O)[C@@H]1CSSC[C@H](NC(=O)[C@@H](N)CO)C(=O)N[C@@H](CC(N)=O)C(=O)N[C@@H]([C@@H](C)O)C(=O)N[C@@H](CO)C(=O)N[C@@H]([C@@H](C)O)C(=O)N1)[C@@H](C)O)C(=O)N[C@@H](Cc1c[nH]cn1)C(=O)N[C@@H](CCCCN)C(=O)N[C@@H](CO)C(=O)N[C@@H](CO)C(=O)N[C@@H](CC(N)=O)C(=O)N[C@@H](CC(N)=O)C(=O)N[C@@H](Cc1ccccc1)C(=O)NCC(=O)N1CCC[C@H]1C(=O)N[C@H](C(=O)N[C@@H](CC(C)C)C(=O)N1CCC[C@H]1C(=O)N1CCC[C@H]1C(=O)N[C@H](C(=O)N[C@@H](CCCCN)C(=O)N[C@H](C(=O)NCC(=O)N[C@@H](CO)C(=O)N[C@@H](CCC(=O)O)C(=O)N[C@H](C(=O)N[C@@H](Cc1ccc(O)cc1)C(N)=O)[C@@H](C)O)C(C)C)[C@@H](C)O)[C@@H](C)CC)C(=O)O [Compound A125] (H-SCNTSTCATQRLANEK([γGlu-Palmitoyl])HKSSNNFGPILPPTKVGSETY-NH2; disulfide 2-7)	0.211 L/kg	3.56 mL/min/kg	0.963 h	–
CC[C@H](C)[C@H](NC(=O)[C@H](C)NC(=O)[C@@H](NC(=O)[C@H](CCC(N)=O)NC(=O)[C@@H]1CCCN1C(=O)[C@H](Cc1ccccc1)NC(=O)[C@@H](NC(=O)[C@H](Cc1c[nH]cn1)NC(=O)[C@H](Cc1ccccc1)NC(=O)[C@H](CCCCN)NC(=O)[C@H](CC(N)=O)NC(=O)[C@H](Cc1ccccc1)NC(=O)[C@H](CC(=O)O)NC(=O)[C@H](CCC(N)=O)NC(=O)[C@@H](NC(=O)[C@H](Cc1ccc(O)cc1)NC(=O)[C@@H](NC(=O)CNC(=O)[C@H](CC(C)C)NC(=O)[C@H](CCSC)NC(=O)[C@@H]1CSSC[C@H](N)C(=O)NCC(=O)N[C@@H](CC(N)=O)C(=O)N[C@@H](CC(C)C)C(=O)N[C@@H](CO)C(=O)N[C@@H]([C@@H](C)O)C(=O)N1)[C@@H](C)O)[C@@H](C)O)[C@@H](C)O)[C@@H](C)O)C(=O)NCC(=O)N[C@H](C(=O)NCC(=O)N[C@@H](C)C(=O)N1CCC[C@H]1C(N)=O)C(C)C [hCalcitonin, human calcitonin, reference compound]	–	–	–	unaffected by the presence of HSA
